# Assay results taken from ChEMBL document CHEMBL4354827, “Discovery of Novel, Potent, Brain-Permeable, and Orally Efficacious Positive Allosteric Modulator of α7 Nicotinic Acetylcholine Receptor [4-(5-(4-Chlorophenyl)-4-methyl-2-propionylthiophen-3-yl)benzenesulfonamide]: Structure-Activity Relationship and Preclinical Characterization” (J Med Chem, 2020).
# Legend:
# [1] = Volume of distribution at steady state in Beagle dog at 1 mg/kg, iv after 0.083 to 144 hrs by LC-MS/MS analysis; type: ADME, organism-based, Canis lupus familiaris; details: in vivo, read-out: Vdss
# Rattus norvegicus [2] = assay: Improvement in social recognition scopolamine-induced Sprague-Dawley rat model of amnesia assessed as increase in reduction in social investigation time at 0.15 mg/kg, po for 7 days measured after 24 hrs (Rvb =6.59%); type: functional; set-up: scale not given: the % may be the effect or the level left
# [3] = Drug concentration in Wistar rat plasma at 10 mg/kg, po after 8 hrs by LC-MS/MS analysis; type: ADME, organism-based
# Rattus norvegicus [4] = assay: Improvement in social recognition time delay-induced Sprague-Dawley rat model of amnesia assessed as increase in reduction in social investigation time at 0.50 mg/kg, po for 7 days and measured on day 9 (reference value: -0.5%); type: functional; set-up: scale not given: the % may be the effect or the level left
# [5] = AUCt in Wistar rat plasma at 10 mg/kg, po after 1 to 144 hrs by LC-MS/MS analysis; type: ADME, organism-based
# Rattus norvegicus [6] = assay: Memory enhancement effect in time-delay induced Wistar rat model of amnesia assessed as exploration time for object2 in acquisition trial at 0.5 mg/kg, po for 7 days and measured on day 8 by novel object recognition test (reference value: 11.76 sec); type: functional
# [7] = Half life in BALB/c mouse at 10 mg/kg, po after 0.25 to 144 hrs by LC-MS/MS analysis; type: ADME, organism-based; details: in vivo
# Cytochrome P450 2A6 = biological target: T1, Cytochrome P450 2A6 (Homo sapiens, UniProt P11509); assay: Inhibition of CYP2A6 (unknown origin) up to 10 uM; type: ADME
# T1 sequence (P11509 whole entry): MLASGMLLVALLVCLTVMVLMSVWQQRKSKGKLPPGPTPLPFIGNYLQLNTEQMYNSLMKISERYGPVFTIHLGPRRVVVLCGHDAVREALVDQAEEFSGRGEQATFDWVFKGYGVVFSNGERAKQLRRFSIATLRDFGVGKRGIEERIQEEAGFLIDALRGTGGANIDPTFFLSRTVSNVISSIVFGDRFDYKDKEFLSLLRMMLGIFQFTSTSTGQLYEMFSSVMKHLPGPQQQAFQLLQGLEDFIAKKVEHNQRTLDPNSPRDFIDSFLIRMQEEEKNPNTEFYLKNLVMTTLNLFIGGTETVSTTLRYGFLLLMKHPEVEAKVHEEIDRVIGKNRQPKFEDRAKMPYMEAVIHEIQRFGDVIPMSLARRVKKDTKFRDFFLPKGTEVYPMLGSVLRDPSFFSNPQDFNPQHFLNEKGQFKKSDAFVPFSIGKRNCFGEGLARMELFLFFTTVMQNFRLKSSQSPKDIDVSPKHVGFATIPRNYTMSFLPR
# [8] = Clearance in BALB/c mouse at 1 mg/kg, iv after 0.083 to 144 hrs by LC-MS/MS analysis; type: ADME, organism-based; details: in vivo
# [9] = Brain to plasma permeability coefficient, Kp in Wistar rat at 10 mg/kg, po after 4 hrs by LC-MS/MS analysis; type: ADME, organism-based
# Rattus norvegicus [10] = assay: Memory enhancement effect in scopolamine-induced Wistar rat model of amnesia assessed as exploration time for novel object in retention trial at 0.5 mg/kg, po for 7 days and measured on day 8 by novel object recognition test (reference value: 12.09 sec); type: functional
# [11] = Volume of distribution at steady state in Wistar rat at 1 mg/kg, iv after 0.083 to 144 hrs by LC-MS/MS analysis; type: ADME, organism-based; details: in vivo, read-out: Vdss
# [12] = Drug concentration in Wistar rat plasma at 10 mg/kg, po after 48 hrs by LC-MS/MS analysis; type: ADME, organism-based
# [13] = Ratio of Cmax in brain to plasma in Wistar rat at 10 mg/kg, po after 144 hrs by LC-MS/MS analysis; type: ADME, organism-based
# [14] = Cmax in Beagle dog at 1 mg/kg, iv after 0.083 to 144 hrs by LC-MS/MS analysis; type: ADME, organism-based, Canis lupus familiaris; set-up: dose 1 mg/kg, route intravenous; details: in vivo
# Rattus norvegicus [15] = assay: Memory enhancement effect in scopolamine-induced Wistar rat model of amnesia assessed as increase in novel object discrimination index at 0.5 mg/kg, po administered as single dose and measured on day 9 by novel object recognition test (reference value: 0.21); type: functional
# Rattus norvegicus [16] = assay: Improvement in social recognition time delay-induced Sprague-Dawley rat model of amnesia assessed as reduction in recognition index at 0.50 mg/kg, po for 7 days and measured on day 9 (reference value: 1.05); type: functional
# [17] = Metabolic stability in mouse liver microsomes assessed as compound remaining at 1 uM preincubated for 5 mins followed by NADPH addition and measured after 30 mins by LC-MS/MS analysis; type: ADME, Microsome; details: read-out: Stability
# [18] = Protein binding in mouse plasma assessed as unbound fraction at 5 uM incubated for 16 hrs under shaking condition by LC/MS/MS based rapid equilibrium dialysis method; type: ADME, cell-free
# [19] = Protein binding in dog plasma assessed as unbound fraction at 5 uM incubated for 16 hrs under shaking condition by LC/MS/MS based rapid equilibrium dialysis method; type: ADME, cell-free, Canis lupus familiaris
# [20] = Cmax in BALB/c mouse at 10 mg/kg, po after 0.25 to 144 hrs by LC-MS/MS analysis; type: ADME, organism-based; set-up: dose 10 mg/kg, route oral; details: in vivo
# Rattus norvegicus [21] = assay: Memory enhancement effect in time-delay induced Wistar rat model of amnesia assessed as exploration time for object1 in acquisition trial at 0.15 mg/kg, po for 7 days and measured on day 8 by novel object recognition test (reference value: 13.73 sec); type: functional
# Rattus norvegicus [22] = assay: Memory enhancement effect in scopolamine-induced Wistar rat model of amnesia assessed as increase in exploration time for novel object in retention trial at 0.05 mg/kg, po administered as single dose and measured on day 9 by novel object recognition test (reference value: 12.09 sec); type: functional
# [23] = Tmax in Beagle dog at 1 mg/kg, iv after 0.083 to 144 hrs by LC-MS/MS analysis; type: ADME, organism-based, Canis lupus familiaris; details: in vivo
# Rattus norvegicus [24] = assay: Memory enhancement effect in scopolamine-induced Wistar rat model of amnesia assessed as increase in exploration time for novel object in retention trial at 0.15 mg/kg, po administered as single dose and measured on day 9 by novel object recognition test (reference value: 12.09 sec); type: functional
# Rattus norvegicus [25] = assay: Memory enhancement effect in time-delay induced Wistar rat model of amnesia assessed as exploration time for novel object at 1 mg/kg, po administered as single dose after acquisition trial by novel object recognition test (reference value: 12.81 sec); type: functional
# [26] = Brain to plasma permeability coefficient, Kp in Wistar rat at 10 mg/kg, po after 48 hrs by LC-MS/MS analysis; type: ADME, organism-based
# [27] = Tmax in Wistar rat plasma at 10 mg/kg, po after 1 to 144 hrs by LC-MS/MS analysis; type: ADME, organism-based
# Rattus norvegicus [28] = assay: Memory enhancement effect in scopolamine-induced Wistar rat model of amnesia assessed as exploration time for familiar object in retention trial at 0.5 mg/kg, po for 7 days and measured on day 8 by novel object recognition test (reference value: 8.59 sec); type: functional
# Rattus norvegicus [29] = assay: Improvement in social recognition scopolamine-induced Sprague-Dawley rat model of amnesia assessed as reduction in recognition index at 0.15 mg/kg, po for 7 days measured after 24 hrs (reference value: 0.93); type: functional
smiles,measurement,setting,value
CCC(=O)c1sc(-c2ccc(Cl)cc2)c(C)c1-c1ccc(S(N)(=O)=O)cc1,Vd,[1],4 L/kg
same,Activity,Rattus norvegicus [2],55.83%
same,concentration at 8 h,[3],830 nM
same,Activity,Rattus norvegicus [4],46.16%
same,AUC(0-t),[5],35 µM·h
same,Time,Rattus norvegicus [6],12.42 s
same,half-life,[7],22 h
same,inhibition (INH),Cytochrome P450 2A6,Not Active
same,clearance,[8],3.6 mL/min/kg
same,Kp at 4 h,[9],10.7
same,Time,Rattus norvegicus [10],15.06 s
same,Vd,[11],4.3 L/kg
same,concentration at 48 h,[12],620 nM
same,Kp at 144 h,[13],10
same,Cmax,[14],3000 nM
same,Activity_index,Rattus norvegicus [15],0.45
same,Activity_index,Rattus norvegicus [16],0.54
same,"remaining at 0.5 h, 1 µM",[17],96%
same,"fraction unbound at 16 h, 5 µM",[18],0.0116
same,"fraction unbound at 16 h, 5 µM",[19],0.0031
same,Cmax,[20],3400 nM
same,Time,Rattus norvegicus [21],10.95 s
same,Time,Rattus norvegicus [22],14.65 s
same,Tmax,[23],0.25 h
same,Time,Rattus norvegicus [24],12.8 s
same,Time,Rattus norvegicus [25],24.46 s
same,Kp at 48 h,[26],9.52
same,Tmax,[27],1 h
same,Time,Rattus norvegicus [28],6.63 s
same,Activity_index,Rattus norvegicus [29],0.44
